Experimental data reported in patent publication US20140005181A1, “SMALL MOLECULE ANTAGONISTS OF THE APELIN RECEPTOR FOR THE TREATMENT OF DISEASE” (Sanford-Burnham Medical Research Institute, priority 2012, published 2014).
Several values for one entry are separate records, joined by “and”; a condition that tells them apart may be missing. Identical values can stand only once.

Experiments:
[1] = target: T1, Angiotensin receptor 1 (AT1) (Homo sapiens, UniProt P30556); test: AT1 DiscoveRx PathHunter β-arrestin counterscreen (antagonism of angiotensin II); format: cell-based; conditions: β-arrestin assay, n = 4 unless noted in parentheses; read-out: AT1 Potency IC50 (μM) Ave. ± S.E.M.
T1 construct: host or cells: Angiotensin receptor 1 (AT1) Cell Line (PathHunter)
T1 sequence (P30556 1-359): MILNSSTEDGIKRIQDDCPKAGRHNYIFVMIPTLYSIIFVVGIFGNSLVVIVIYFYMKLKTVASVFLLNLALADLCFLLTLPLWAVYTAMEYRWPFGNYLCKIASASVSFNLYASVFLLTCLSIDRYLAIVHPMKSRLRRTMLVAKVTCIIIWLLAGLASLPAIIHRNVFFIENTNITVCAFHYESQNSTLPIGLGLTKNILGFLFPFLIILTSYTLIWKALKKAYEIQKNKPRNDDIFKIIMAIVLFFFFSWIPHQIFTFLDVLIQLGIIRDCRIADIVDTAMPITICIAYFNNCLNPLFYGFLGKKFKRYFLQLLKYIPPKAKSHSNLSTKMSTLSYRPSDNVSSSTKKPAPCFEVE
Text: (§1) All assays in Table 2, with the exception of the […] counterscreen, utilize the DiscoveRx PathHunter® β-arrestin assay technology. Unlike imaging or other second messenger assays, the DiscoveRx β-arrestin assay allows for a direct measure of GPCR activation by detection of β-arrestin binding to the APJ, and in the case of the counterscreen, the AT1 receptor. […] In cells that stably express these fusion proteins, ligand stimulation results in the interaction of β-arrestin and the ProLink-tagged GPCR, forcing the complementation of the two β-galactosidase fragments and resulting in the formation of a functional enzyme that converts substrate to detectable luminescent signal.
Next, varying volumes of stock test compounds in DMSO were transferred to each well to achieve appropriate dose response concentrations and range. DMSO was backfilled into each test compound well to a total volume of 80 nL to achieve equal concentration of DMSO in all wells. This was followed by an addition of 1 μL of 300 nM reference agonist, Angiotensin II, to the negative and test compound wells, and 1 μL of assay media to positive control wells. The assay was incubated for 90 mins at room temperature, and then developed with 3 μL of detection reagent for 60 mins and luminescence read on a Perkin Elmer ViewLux.

APJ = target: T2, APJ (Homo sapiens, UniProt P35414); test: APJ DiscoveRx PathHunter β-arrestin assay (antagonism of apelin-13); format: cell-based; set-up: host or cells: Angiotensin II receptor-like 1 (AGTRL-1) Cell Line (PathHunter); conditions: for IC50: β-arrestin assay, n = 4 unless noted in parentheses, read-out: APJ Potency IC50 (μM) Ave. ± S.E.M.
T2 sequence (P35414 1-380): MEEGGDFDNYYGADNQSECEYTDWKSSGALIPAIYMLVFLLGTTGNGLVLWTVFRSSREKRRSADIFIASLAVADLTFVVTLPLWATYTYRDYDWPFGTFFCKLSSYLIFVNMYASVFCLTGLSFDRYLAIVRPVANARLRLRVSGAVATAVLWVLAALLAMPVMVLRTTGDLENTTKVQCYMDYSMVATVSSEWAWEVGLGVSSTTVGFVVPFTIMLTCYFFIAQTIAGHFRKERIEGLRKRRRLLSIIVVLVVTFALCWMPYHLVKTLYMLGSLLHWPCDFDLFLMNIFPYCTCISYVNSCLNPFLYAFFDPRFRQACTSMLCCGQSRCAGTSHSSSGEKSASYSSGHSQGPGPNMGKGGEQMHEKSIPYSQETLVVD
Procedure: The assay was incubated for 90 mins at room temperature, and then developed with 3 μL of detection reagent (PathHunter Detection Reagents (DiscoveRx, Cat#93-0001)) for 60 mins and luminescence read on a Perkin Elmer ViewLux.
as §1
Assay was incubated for 90 mins at room temperature, and then developed with 3 μL of detection reagent for 60 mins and luminescence read on a Perkin Elmer ViewLux. Initial actives were retested in duplicate at the 20 μM test concentration, and reconfirmed hits retested in full dose-response for compounds from resupplied MLSMR DMSO stock solutions.

Compound | IC50 [1] | IC50 (APJ) | SI = Selectivity Index: (IC50 AT1)/(IC50 APJ) (APJ)
Cc1ccnc(SCc2cc(=O)c(OC(=O)c3ccccc3Cl)co2)n1 [Compound 42] | > 79 µM | – | –
Cc1ccnc(SCc2cc(=O)c(OC(=O)c3ccsc3)co2)n1 [Compound 76] | > 79 µM | > 79 µM | –
Cc1ccnc(SCc2cc(=O)c(OC(=O)C(C)(C)C)co2)n1 [Compound 68] | > 79 µM | > 79 µM | –
Cc1ccnc(SCc2cc(=O)c(OC(=O)c3ccc(C)c([N+](=O)[O-])c3)co2)n1 [Compound 30] | – | 4.7 µM | >17
Cc1cc(C)nc(SCc2cc(=O)c(OS(=O)(=O)c3ccccc3)co2)n1 [Compound 71] | > 79 µM | > 79 µM | –
Cc1cc(C)nc(SCc2cc(=O)c(OC(=O)c3ccc(-c4nccs4)cc3)co2)n1 [Compound 55] | > 79 µM | > 79 µM | –
Cc1ccnc(SCc2cc(=O)c(OCc3ccccc3)co2)n1 [Compound 66] | > 79 µM | > 79 µM | –
Cc1cc(C)nc(SCc2cc(=O)c(OC(=O)c3ccc(S(=O)(=O)N(C)C)cc3)co2)n1 [Compound 51] | > 79 µM | > 79 µM | –
N#Cc1ccc(C(=O)Oc2coc(CSc3ncccn3)cc2=O)cc1 [Compound 7] | > 79 µM | 6.59 µM and 9.77 µM | >12 and >8
Cc1ccnc(SCc2cc(=O)c(NC(=O)c3ccccc3)co2)n1 [Compound 73] | > 79 µM | > 79 µM | –
Cc1cc(C)nc(SCc2cc(=O)c(OS(=O)(=O)c3ccc([N+](=O)[O-])cc3)co2)n1 [Compound 72] | > 79 µM | > 79 µM | –
Cc1ccnc(SCc2cc(=O)c(OC(=O)c3ccco3)co2)n1 [Compound 75] | > 79 µM | > 79 µM | –
Cc1cc(C)nc(SCc2cc(=O)c(OC(=O)c3ccc(C)c([N+](=O)[O-])c3)co2)n1 [Compound 50] | > 79 µM | 25.3 ± 5.8 µM | >3
Cc1ccnc(SCc2cc(=O)c(OCc3ccc(Cl)c([N+](=O)[O-])c3)co2)n1 [Compound 67] | > 79 µM | > 79 µM | –
Cc1ccnc(SCc2cc(=O)c(OC(=O)c3ccc([N+](=O)[O-])o3)co2)n1 [Compound 77] | > 79 µM | > 79 µM | –
O=C(Oc1coc(CSc2ncccn2)cc1=O)c1ccc(Br)cc1 [Compound 9] | – | 18.2 µM | –
Cc1ccnc(SCc2cc(=O)c(OC(=O)c3cnco3)co2)n1 [Compound 78] | > 79 µM | > 79 µM | –
O=C(Oc1coc(CSc2ccc(Cl)cc2)cc1=O)c1ccc(Cl)c([N+](=O)[O-])c1 [Compound 63] | > 79 µM | 4.53 ± 0.66 µM | >17
Cc1ccc(C(=O)Oc2coc(CSc3ncccn3)cc2=O)cc1[N+](=O)[O-] [Compound 3] | – | 7.25 µM and 10.9 µM | >11 and >7.2
Cc1ccnc(SCc2cc(=O)c(NC(=O)c3ccc([N+](=O)[O-])cc3)co2)n1 [Compound 74] | > 79 µM | > 79 µM | –
Cc1ccnc(SCc2cc(=O)c(OC(=O)c3ccccc3C)co2)n1 [Compound 46] | > 79 µM | > 79 µM | –
Cc1ccnc(SCc2cc(=O)c(OC(=O)c3cc(Cl)ccc3[N+](=O)[O-])co2)n1 [Compound 40] | – | 58.8 µM | –
O=c1cc(CSc2ccccc2)occ1O [Compound 56] | > 79 µM | > 79 µM | –

The remaining lines, values ahead:

IC50 [1] | IC50 (APJ) | SI = Selectivity Index: (IC50 AT1)/(IC50 APJ) (APJ) | Compound
49.7 ± 6.74 µM | > 79 µM | – | Cc1cc(C)nc(SCc2cc(=O)c(OC(=O)c3cc(Cl)ccc3[N+](=O)[O-])co2)n1 [Compound 52]
– | 75.7 µM | – | O=C(Oc1coc(CSc2ncccn2)cc1=O)c1cccc([N+](=O)[O-])c1 [Compound 4]
> 79 µM | > 79 µM | – | O=c1cc(CSc2ccc(F)cc2)occ1O [Compound 57]
> 79 µM | > 79 µM | – | Cc1cccc(C(=O)Oc2coc(CSc3nccc(C)n3)cc2=O)c1 [Compound 44]
– | 3.11 µM and 4.32 µM | >25 and >23 | Cc1ccnc(SCc2cc(=O)c(OC(=O)c3ccc([N+](=O)[O-])cc3)co2)n1 [Compound 33]
> 79 µM | > 79 µM | – | Cc1cc(C)nc(SCc2cc(=O)c(OC(=O)c3cccc([N+](=O)[O-])c3C)co2)n1 [Compound 54]
> 79 µM | > 79 µM | – | O=c1cc(CSc2ncccn2)occ1O [Compound 58]
– | 29 µM | – | O=C(Oc1coc(CSc2ncccn2)cc1=O)c1ccc(C(F)(F)F)cc1 [Compound 8]
– | 72.2 µM | – | Cc1c(C(=O)Oc2coc(CSc3ncccn3)cc2=O)cccc1[N+](=O)[O-] [Compound 22]
– | 8.51 µM and 11.5 µM | >9 and >7 | Cc1ccnc(SCc2cc(=O)c(OC(=O)c3ccc(C#N)cc3)co2)n1 [Compound 34]
> 79 µM | 5.45 ± 1.47 µM | >15 | Cc1cc(C)nc(SCc2cc(=O)c(OC(=O)c3ccc(Cl)c([N+](=O)[O-])c3)co2)n1 [Compound 49]
– | 20.6 µM | – | Cc1ccnc(SCc2cc(=O)c(OC(=O)c3ccc(C(F)(F)F)cc3)co2)n1 [Compound 35]
49.7 ± 6.74 µM | 44.5 µM | – | Cc1cc(C)nc(SCc2cc(=O)c(OC(=O)c3cc([N+](=O)[O-])ccc3Cl)co2)n1 [Compound 53]
– | 54.5 µM | – | O=C(Oc1coc(CSc2ncccn2)cc1=O)c1ccc(Cl)cc1 [Compound 5]
– | 39.9 ± 8.65 µM | – | Cc1ccnc(SCc2cc(=O)c(OC(=O)c3ccc(S(=O)(=O)N4CCCC4)cc3)co2)n1 [Compound 39]
60.1 ± 1.35 µM | 51 µM | – | O=C(Oc1coc(CSc2ncccn2)cc1=O)c1cc([N+](=O)[O-])ccc1Cl [Compound 21]
– | 59.2 µM | – | Cc1ccnc(SCc2cc(=O)c(OC(=O)c3cccc([N+](=O)[O-])c3)co2)n1 [Compound 31]
– | 6.2 ± 0.77 µM | >13 | O=C(Oc1coc(CSc2ncccn2)cc1=O)c1ccc(Cl)c([N+](=O)[O-])c1 [Compound 2]
– | 74.1 µM | – | Cc1ccnc(SCc2cc(=O)c(OC(=O)c3cc([N+](=O)[O-])ccc3Cl)co2)n1 [Compound 41]
